SMILES strings stand for the structures.

The target in assay [1] is 3',5'-cyclic-AMP phosphodiesterase 4A (Homo sapiens, UniProt P27815). The assay is described as follows: Selectivity interaction (Enzyme panel (AstraZeneca, AlphaScreen, functional assay)) EUB0000621a PDE4A. (Bead proximity is the source of the signal in Alpha formats.)
The target in assay [2] is Ribosomal protein S6 kinase alpha-1 (Homo sapiens, UniProt Q15418). The assay is described as follows: Selectivity interaction (KinomeScan (DiscoverX)) EUB0000666a RPS6KA1. As to conditions: at 10 µM.
Sequence of Ribosomal protein S6 kinase alpha-1 (Q15418 whole entry): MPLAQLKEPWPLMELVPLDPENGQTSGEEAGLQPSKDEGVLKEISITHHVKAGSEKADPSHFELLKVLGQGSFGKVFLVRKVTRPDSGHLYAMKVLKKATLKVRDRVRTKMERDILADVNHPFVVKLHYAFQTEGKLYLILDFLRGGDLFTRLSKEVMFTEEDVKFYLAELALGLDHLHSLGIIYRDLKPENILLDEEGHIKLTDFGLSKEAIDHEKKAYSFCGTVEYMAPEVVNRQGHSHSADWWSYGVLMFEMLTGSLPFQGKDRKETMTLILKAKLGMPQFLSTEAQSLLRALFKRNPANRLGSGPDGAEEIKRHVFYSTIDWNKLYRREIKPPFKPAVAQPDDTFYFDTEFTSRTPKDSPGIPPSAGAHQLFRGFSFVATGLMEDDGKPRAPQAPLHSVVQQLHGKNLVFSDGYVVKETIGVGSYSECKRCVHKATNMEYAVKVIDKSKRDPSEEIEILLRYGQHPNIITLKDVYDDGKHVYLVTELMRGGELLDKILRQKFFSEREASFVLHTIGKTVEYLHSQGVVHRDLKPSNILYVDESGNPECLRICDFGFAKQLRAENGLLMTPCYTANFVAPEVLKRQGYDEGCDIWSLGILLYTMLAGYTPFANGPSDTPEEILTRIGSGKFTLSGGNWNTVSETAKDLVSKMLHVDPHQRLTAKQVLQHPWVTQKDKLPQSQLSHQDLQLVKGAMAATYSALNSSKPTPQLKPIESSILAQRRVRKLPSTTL
In assay [3] the target is T1, Serine/threonine-protein kinase LATS2 (Homo sapiens) (UniProt Q9NRM7).
T1 sequence (whole entry): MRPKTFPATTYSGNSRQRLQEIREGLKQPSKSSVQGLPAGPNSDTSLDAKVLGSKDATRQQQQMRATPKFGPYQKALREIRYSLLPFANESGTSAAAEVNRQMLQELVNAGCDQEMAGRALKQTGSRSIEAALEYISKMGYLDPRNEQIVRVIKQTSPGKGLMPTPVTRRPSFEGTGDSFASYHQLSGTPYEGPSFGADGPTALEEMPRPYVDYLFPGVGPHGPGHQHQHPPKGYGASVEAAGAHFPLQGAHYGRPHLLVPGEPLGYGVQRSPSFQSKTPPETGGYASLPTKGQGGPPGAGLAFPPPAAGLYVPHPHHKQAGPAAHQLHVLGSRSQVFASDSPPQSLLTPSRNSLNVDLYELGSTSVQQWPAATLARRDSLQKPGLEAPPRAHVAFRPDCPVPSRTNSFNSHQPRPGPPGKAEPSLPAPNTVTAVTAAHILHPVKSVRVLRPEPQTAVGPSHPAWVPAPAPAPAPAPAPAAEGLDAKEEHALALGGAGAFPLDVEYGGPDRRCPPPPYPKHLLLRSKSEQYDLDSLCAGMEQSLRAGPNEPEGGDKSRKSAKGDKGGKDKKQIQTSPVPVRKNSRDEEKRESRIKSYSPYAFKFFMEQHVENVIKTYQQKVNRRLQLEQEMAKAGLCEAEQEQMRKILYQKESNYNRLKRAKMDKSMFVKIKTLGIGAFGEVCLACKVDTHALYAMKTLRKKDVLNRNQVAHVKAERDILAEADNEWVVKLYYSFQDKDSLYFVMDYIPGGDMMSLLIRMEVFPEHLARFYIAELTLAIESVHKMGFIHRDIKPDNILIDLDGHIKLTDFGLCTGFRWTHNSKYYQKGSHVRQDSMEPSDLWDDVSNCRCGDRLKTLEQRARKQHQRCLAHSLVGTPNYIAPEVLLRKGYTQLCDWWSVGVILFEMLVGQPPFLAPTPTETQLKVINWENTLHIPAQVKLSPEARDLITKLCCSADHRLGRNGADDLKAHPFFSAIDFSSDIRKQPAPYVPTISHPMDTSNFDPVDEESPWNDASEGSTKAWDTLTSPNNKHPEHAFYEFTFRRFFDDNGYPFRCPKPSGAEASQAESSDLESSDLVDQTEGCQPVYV
The assay is described as follows: Selectivity interaction (KinomeScan (DiscoverX)) EUB0000229b LATS2. As to conditions: at 10 µM.

For assay [4], the target named is T2, Phosphatidylinositol 4,5-bisphosphate 3-kinase catalytic subunit delta isoform (Homo sapiens) (UniProt O00329).
T2 sequence (whole entry): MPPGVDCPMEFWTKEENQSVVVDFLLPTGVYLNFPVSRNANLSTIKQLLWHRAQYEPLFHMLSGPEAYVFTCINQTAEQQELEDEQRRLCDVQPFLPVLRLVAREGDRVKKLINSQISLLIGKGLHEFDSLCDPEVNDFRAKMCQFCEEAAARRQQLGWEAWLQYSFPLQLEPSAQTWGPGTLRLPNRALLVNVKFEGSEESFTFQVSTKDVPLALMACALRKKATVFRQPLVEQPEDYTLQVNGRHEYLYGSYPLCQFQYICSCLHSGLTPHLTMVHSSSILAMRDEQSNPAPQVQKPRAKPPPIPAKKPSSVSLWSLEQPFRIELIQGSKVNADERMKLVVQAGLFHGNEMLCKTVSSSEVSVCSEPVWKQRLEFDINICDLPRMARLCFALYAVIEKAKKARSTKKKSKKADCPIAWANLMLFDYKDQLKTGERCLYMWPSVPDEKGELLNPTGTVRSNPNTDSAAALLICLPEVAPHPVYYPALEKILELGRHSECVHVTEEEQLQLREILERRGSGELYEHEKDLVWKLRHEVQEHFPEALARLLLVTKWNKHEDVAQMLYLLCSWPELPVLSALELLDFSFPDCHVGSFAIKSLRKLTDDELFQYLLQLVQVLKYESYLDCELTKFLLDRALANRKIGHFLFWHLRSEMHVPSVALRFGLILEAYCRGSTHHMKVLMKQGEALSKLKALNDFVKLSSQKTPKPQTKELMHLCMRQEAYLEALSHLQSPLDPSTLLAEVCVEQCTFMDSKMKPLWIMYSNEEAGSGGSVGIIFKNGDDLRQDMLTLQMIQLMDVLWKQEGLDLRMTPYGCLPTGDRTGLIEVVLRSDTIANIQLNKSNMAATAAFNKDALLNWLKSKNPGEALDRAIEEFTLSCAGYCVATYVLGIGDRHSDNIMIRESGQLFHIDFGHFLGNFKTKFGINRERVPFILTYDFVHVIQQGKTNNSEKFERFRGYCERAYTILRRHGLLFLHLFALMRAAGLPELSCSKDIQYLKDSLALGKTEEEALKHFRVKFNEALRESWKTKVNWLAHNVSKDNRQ
The assay is described as follows: Selectivity interaction (ActivX KiNativ screen (kinase selectivity in THP-1 cell lysates)) EUB0000639a PIK3CD. It is filed as subcellular. The conditions noted are these: lysate, at 0.01 µM.

Assay [5] addresses Ribosomal protein S6 kinase alpha-3 (Homo sapiens, UniProt P51812). The assay is described as follows: Selectivity interaction (ActivX KiNativ screen (kinase selectivity in THP-1 cell lysates)) EUB0000639a RPS6KA3. As to conditions: lysate, at 5 µM. It is filed as subcellular.
Assay [6] deals with 5'-AMP-activated protein kinase catalytic subunit alpha-1 (Homo sapiens, UniProt Q13131). The assay is described as follows: Selectivity interaction (ProQinase) EUB0000171b PRKAA1.
Sequence of 5'-AMP-activated protein kinase catalytic subunit alpha-1 (Q13131 whole entry, looked up): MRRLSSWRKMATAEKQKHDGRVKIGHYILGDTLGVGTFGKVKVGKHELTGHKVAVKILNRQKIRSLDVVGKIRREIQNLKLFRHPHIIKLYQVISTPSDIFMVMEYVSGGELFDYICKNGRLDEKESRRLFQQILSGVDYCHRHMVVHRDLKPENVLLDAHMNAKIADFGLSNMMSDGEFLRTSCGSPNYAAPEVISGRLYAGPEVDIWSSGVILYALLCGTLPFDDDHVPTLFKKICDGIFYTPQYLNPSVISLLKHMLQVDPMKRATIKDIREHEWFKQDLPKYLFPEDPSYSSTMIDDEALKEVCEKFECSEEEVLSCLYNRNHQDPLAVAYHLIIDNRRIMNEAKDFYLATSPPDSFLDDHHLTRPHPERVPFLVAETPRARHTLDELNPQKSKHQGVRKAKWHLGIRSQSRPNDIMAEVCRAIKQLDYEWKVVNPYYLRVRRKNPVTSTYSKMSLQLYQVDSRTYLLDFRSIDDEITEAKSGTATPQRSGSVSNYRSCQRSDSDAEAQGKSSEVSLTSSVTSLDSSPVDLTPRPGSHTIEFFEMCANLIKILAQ

Sequence of 3',5'-cyclic-AMP phosphodiesterase 4A (P27815 whole entry): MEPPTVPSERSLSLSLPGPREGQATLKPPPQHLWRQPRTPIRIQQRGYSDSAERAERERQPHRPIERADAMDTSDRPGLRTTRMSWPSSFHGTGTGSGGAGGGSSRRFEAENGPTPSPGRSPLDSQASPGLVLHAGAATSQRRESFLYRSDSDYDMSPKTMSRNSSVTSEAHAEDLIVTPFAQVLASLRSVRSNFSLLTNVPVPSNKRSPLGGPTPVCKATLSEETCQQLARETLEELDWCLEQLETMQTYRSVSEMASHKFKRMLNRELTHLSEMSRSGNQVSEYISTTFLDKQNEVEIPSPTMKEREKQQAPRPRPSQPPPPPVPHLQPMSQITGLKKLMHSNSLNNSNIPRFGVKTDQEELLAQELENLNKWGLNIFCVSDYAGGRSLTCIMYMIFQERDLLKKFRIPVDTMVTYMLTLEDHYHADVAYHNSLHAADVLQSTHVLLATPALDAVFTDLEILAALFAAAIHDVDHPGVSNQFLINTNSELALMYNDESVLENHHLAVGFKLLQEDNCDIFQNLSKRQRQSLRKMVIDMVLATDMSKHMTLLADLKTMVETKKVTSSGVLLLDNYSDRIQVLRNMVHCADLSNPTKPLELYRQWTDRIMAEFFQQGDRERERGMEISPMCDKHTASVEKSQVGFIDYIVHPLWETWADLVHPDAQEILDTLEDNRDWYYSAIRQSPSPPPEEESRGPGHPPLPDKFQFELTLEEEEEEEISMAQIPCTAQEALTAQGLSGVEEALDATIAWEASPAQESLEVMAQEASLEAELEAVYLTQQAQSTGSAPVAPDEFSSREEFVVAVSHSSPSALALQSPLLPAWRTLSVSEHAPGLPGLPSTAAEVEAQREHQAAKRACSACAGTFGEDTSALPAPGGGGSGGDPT
Sequence of Ribosomal protein S6 kinase alpha-3 (P51812 whole entry): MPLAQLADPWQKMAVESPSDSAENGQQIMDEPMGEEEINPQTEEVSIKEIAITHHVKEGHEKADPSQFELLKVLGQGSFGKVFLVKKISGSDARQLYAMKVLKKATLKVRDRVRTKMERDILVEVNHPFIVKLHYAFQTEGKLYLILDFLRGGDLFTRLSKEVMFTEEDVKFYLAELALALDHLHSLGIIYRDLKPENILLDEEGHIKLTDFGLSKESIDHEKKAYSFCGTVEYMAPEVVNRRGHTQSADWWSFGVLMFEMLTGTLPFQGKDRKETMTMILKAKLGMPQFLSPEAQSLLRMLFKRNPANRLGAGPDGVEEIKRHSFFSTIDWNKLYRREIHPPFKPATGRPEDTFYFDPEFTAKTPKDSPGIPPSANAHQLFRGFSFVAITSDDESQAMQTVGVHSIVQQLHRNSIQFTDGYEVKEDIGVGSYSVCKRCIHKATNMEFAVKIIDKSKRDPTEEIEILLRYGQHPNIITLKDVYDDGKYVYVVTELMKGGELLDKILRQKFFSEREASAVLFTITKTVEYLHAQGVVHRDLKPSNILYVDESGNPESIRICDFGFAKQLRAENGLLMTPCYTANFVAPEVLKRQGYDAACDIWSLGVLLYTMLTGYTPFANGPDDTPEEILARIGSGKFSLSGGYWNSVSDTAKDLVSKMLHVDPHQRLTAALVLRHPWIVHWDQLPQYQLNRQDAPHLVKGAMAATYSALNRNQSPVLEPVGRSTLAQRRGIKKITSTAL

As to `Cc1cc([C@@H](C)Nc2ccccc2C(=O)O)c2nc(N3CCOCC3)cc(=O)n2c1` [AZD-6482], half-maximal inhibition in assay [1] (IC50) was put at 17 µM.

As for `O=C(NOC[C@H](O)CO)c1ccc(F)c(F)c1Nc1ccc(I)cc1F`, the % of control in assay [2] came out at 100%.

As to `COc1cc(N(C)c2ccnc3ccc(C(F)(F)F)cc23)cc(OC)c1OC`, in assay [3], the % binding worked out at 89%.

Consider `CC[C@@H]1[C@H](F)C(=O)N[C@@H]1COc1nccc2cc(C(N)=O)c(OC)cc12` [ZIMLOVISERTIB], for which the % of inhibition in assay [4] was -9.6%; in assay [5], 8%.

With `C=CC(=O)Nc1cccc(C(=O)Nc2ccc(Nc3cc(-c4[nH]c(SC)nc4C)ccn3)cc2)c1`, the % of control in assay [6] (at 1 µM) stood at 100%; in assay [6] (at 5 µM), 93%.
